The source of these data is patent EP0968998A1, “Cosmetic compositions, ceramide analogues with anti-elastase activity and process for their preparation” (ELF ATOCHEM S.A., priority 1998, dated 2000).

This test concerns the target T1, élastase de leucocytes humains (Homo sapiens, UniProt P08246).
T1 construct: purchased Elastin Products Co. SE 563; host or cells: human leukocytes, as the enzyme's name says
T1 sequence (P08246 30-267): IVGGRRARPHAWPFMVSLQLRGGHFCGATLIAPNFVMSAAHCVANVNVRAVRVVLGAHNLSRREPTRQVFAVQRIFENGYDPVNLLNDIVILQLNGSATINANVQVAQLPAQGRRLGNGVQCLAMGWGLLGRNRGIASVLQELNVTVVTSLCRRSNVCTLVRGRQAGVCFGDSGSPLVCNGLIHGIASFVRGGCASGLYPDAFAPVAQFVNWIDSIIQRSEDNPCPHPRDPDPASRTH
As to the kind of experiment: Anti-elastase activity: release of p-nitroaniline from N-succinyl-(Ala)3-p-nitroanilide, spectrophotometry at 410 nm. The class given is biochemical. Conditions: pH 8, 37°C, pH8, 5 min preincubation, substrate 250 µM, read-out: % I (%). The source says: Les exemples qui suivent permettent d'illustrer l'invention. Dans ces exemples, on utilise les méthodes d'analyse suivantes : - Spectrographie infrarouge (IR) Les spectres sont réalisés au moyen d'un appareil PERKIN ELMER 1760 IRTF, en dispersion dans KBr à 1 %. Les valeurs sont exprimées en nombre d'onde par centimètre. - Résonance magnétique nucléaire (RMN) Les spectres sont réalisés au moyen d'un appareil BRUCKER DRX 500, à 500 MHz (^1H) et 125 MHz (^13C) dans le DMSO-d6. La calibration de l'appareil est effectuée au moyen de DMSO. Les déplacements chimiques sont exprimés en ppm. L'aspect des signaux est noté : singulet (s), doublet (d), triplet (t), quadruplet (q), multiplet (m), quintuplet (*5) et couplage AB (AB). - Mesure de l'activité anti-élastase L'activité anti-élastase est mesurée selon la méthode qui consiste à faire réagir l'élastase de leucocytes humains (référence SE 563; Elastin Products Co.; Owensville, MO, USA) avec le N-succinyl-(Ala)3-p-nitroanilide (réf. S4760; Sigma) et mesurer la libération de p-nitroaniline. On utilise le N-succinyl-(Ala)3-p-nitroanilide en solution dans le tétrahydrofurane et une solution d'élastase à 100 mg/ml dans un mélange de glycérol et de tampon acétate de sodium (50/50; v/v), pH5. L'activité de l'enzyme est mesurée à 37°C dans 100 mM de tampon Tris-HCI, pH8 contenant 0,01 % de Triton X-100 (volume/volume) et 0,02 % d'azide de sodium (poids/volume). Le céramide à tester, solubilisé dans le tétrahydrofurane (concentration en THF = 0,5 % en volume) est préincubé en présence de l'enzyme (0,05 mg/ml) dans le tampon pendant 5 minutes à 37°C. On ajoute le N-succinyl-(Ala)3-p-nitroanilide (concentration finale : 250 µM) et on mesure la libération de la p-nitroaniline dans une cuve en quartz par spectrophotométrie à 410 nm. La capacité inhibitrice du céramide est exprimée en pourcentage d'inhibition (% I) selon la relation : %I = (1 -(Vi)/(Vo))×100 [formula] dans laquelle Vi et Vo sont les vitesses d'apparition de la p-nitroaniline en présence et en absence d'inhibiteur respectivement. - Mesure de l'amélioration de la barrière cutanée a) mesure de la Perte Insensible en Eau (PIE) La mesure de la PIE permet de quantifier la très faible quantité d'eau qui diffuse passivement à travers le stratum corneum. Ce paramètre représente un très bon index de la fonction barrière du stratum corneum. Cette méthode est surtout utilisée pour contrôler l'efficacité de formules cosmétiques qui, contenant certains types de lipides sont capables de diminuer la PIE et, en conséquence, d'empêcher la déshydratation du stratum corneum. La sonde est laissée en contact de la peau pendant 2 minutes environ de façon à atteindre une position d'équilibre. PIE = D'(dP)/(dx)(gradient de pression de vapeur) [formula] Les valeurs sont exprimées en g/m^2/heure et permettent de calculer un delta de PIE = PIE (peau traitée) - PIE (peau témoin). L'appareil utilisé est un Evaporimètre EPI de Servomed. Les mesures sont effectuées sur deux groupes de 15 volontaires sains ayant une peau sèche, avant l'application du produit (t=0) et après l'application (t=0,5 heure, 1 heure, 3 heures et 6 heures) sur la face interne des deux avant-bras. L'analogue de céramide selon l'invention ou le céramide témoin est incorporé dans une crème ayant la composition suivante (en % en poids) : […]

For `CCCCCCCCCCCCCCCCCC(=O)NC(CC)(CO)COC(=O)CCCCCCCCCCCCCCCCC` (centres unmarked) [Exemple 4, 1-stéaroyl-2-éthyl-2-stéaroylamino-1,3-propanediol], the inhibition at 250 µM (Concentration 250 µM) was found to be 67%. Besides, the inhibition at 500 µM (Concentration 500 µM) came to 86%.
